Data on ten compounds can be found in article PMC12472322, “Structure–Activity Relationship Study of 3-Alkynyl-6-aryl-isothiazolo[4,3-b]pyridines as Dual Inhibitors of the Lipid Kinases PIKfyve and PIP4K2C” (Pharmaceuticals, 2025).

Where two headings read alike, the source gives them in different places. Bounds are passed on as bounds.

In one data set the test system is HCT-116. Briefly: cell proliferation assay (MTS, 72 h). Conditions: Homo sapiens, HCT-116, 72 h, read-out: CC50 HCT-116.
A further data set deals with Capan-1. The data set can be described thus: cell proliferation assay (MTS, 72 h). The following applies: Homo sapiens, CAPAN-1, 72 h, read-out: CC50 Capan-1.
For a further data set, the target named is T1, PIKfyve (Homo sapiens, UniProt Q9Y2I7).
T1 construct: purchased Nanosyn, Santa Clara, CA, USA (contract assay service)
T1 sequence (Q9Y2I7 whole entry): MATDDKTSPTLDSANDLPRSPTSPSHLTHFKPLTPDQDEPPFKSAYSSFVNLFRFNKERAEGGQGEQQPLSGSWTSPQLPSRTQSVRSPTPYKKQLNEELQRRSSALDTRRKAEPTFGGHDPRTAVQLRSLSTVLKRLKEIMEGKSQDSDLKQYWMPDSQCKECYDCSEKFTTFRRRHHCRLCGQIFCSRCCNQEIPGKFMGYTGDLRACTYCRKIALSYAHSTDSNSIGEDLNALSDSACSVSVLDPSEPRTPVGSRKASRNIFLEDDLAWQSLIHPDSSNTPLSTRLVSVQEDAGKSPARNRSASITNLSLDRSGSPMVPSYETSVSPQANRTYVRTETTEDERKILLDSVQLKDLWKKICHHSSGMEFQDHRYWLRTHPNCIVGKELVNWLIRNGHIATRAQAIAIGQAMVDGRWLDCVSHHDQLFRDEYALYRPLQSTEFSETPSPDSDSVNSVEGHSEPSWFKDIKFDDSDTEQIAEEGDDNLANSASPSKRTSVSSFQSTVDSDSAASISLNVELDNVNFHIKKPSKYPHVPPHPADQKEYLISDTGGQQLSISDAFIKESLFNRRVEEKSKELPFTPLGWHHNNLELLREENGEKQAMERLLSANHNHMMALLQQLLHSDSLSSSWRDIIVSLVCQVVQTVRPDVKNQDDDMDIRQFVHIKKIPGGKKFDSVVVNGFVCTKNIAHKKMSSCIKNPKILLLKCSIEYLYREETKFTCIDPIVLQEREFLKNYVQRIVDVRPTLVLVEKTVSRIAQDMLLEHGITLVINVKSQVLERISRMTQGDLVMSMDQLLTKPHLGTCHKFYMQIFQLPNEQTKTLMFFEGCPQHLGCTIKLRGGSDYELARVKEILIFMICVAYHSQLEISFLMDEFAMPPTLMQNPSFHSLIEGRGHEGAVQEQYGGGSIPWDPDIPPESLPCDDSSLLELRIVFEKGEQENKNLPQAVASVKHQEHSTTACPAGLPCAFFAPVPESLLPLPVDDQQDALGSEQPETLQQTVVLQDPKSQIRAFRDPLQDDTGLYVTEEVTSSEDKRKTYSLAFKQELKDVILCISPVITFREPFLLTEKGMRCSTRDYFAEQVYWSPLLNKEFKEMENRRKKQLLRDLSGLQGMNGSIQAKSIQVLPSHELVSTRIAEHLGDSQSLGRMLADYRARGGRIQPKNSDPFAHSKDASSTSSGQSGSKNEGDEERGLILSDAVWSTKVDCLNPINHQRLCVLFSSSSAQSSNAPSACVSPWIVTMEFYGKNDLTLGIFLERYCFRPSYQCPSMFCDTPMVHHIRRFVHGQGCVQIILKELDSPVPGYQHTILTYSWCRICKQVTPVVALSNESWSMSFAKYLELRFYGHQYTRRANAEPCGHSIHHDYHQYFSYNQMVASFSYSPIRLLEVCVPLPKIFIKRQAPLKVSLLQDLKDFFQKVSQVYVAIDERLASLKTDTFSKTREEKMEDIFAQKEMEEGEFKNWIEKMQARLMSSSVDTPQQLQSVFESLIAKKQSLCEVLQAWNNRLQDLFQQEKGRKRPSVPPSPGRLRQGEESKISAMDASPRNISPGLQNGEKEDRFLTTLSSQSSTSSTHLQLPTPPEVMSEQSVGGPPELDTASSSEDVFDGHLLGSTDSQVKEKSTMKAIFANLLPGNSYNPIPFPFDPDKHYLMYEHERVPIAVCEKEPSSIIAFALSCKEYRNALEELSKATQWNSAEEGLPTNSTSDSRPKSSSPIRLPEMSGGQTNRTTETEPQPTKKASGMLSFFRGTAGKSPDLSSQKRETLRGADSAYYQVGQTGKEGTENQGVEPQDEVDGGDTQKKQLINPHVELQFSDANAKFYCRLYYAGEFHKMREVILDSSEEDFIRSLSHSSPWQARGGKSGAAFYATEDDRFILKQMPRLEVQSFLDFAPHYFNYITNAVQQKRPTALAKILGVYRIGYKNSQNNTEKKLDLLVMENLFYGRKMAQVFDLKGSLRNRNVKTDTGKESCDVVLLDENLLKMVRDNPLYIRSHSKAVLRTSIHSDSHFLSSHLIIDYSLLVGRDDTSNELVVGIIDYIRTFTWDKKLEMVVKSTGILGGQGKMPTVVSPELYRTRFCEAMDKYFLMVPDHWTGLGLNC
The data set can be described thus: biochemical PIKfyve mobility shift assay (Nanosyn).

Another data set relates to NCI-H460. The data set can be described thus: cell proliferation assay (MTS, 72 h). Conditions: Homo sapiens, NCI-H460, 72 h, read-out: CC50 NCI-H460.
Another data set has as its system LN-229. The data set can be described thus: cell proliferation assay (MTS, 72 h). The following applies: Homo sapiens, LN-229, 72 h, read-out: CC50 LN-229.
The subject of another data set is Z-138. Briefly: cell proliferation assay (MTS, 72 h). The following applies: Homo sapiens, Z-138, 72 h, read-out: CC50 Z-138.
The test system of a further data set is HL-60. The data set can be described thus: cell proliferation assay (MTS, 72 h). Conditions: Homo sapiens, HL-60, 72 h, read-out: CC50 HL-60.
The next data set relates to K-562. Briefly: cell proliferation assay (MTS, 72 h). Conditions: Homo sapiens, K562, 72 h, read-out: CC50 K-562.
A further data set concerns DND-41. Briefly: cell proliferation assay (MTS, 72 h). Conditions: DND41, 72 h, read-out: CC50 DND-41.
For another data set, the system named is SARS-CoV-2. Briefly: microbe, parasite or virus in culture. The class given is cell-based, severe acute respiratory syndrome coronavirus 2. The following applies: Severe acute respiratory syndrome coronavirus 2, VeroE6/TMPRSS2, 24 h; read-out: SARS-CoV2 EC50.
Data set [1] is described as follows: cell viability (AlamarBlue) in SARS-CoV-2-infected Vero E6/TMPRSS2 cells. The following applies: African green monkey, Vero E6/TMPRSS2 cells infected with SARS-CoV-2, half-maximal cytotoxic concentration, read-out: SARS-CoV2 CC50. The class given is cell-based. (Resazurin is reduced to fluorescent resorufin, in cell work by metabolically active cells.)
Data set [2] addresses T2, PIP4K2C (Homo sapiens, UniProt Q8TBX8).
T2 sequence (Q8TBX8 1-421): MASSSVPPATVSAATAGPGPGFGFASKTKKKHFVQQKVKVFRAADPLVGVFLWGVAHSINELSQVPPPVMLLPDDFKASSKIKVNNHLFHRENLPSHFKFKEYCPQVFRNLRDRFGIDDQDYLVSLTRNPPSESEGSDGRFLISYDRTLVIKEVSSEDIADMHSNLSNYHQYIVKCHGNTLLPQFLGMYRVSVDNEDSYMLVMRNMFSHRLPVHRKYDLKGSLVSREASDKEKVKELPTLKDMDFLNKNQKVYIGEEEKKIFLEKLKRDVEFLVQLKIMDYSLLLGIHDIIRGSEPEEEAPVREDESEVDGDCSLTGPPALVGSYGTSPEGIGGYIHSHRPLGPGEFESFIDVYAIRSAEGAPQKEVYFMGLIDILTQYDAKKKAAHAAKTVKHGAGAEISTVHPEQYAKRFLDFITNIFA
The data set can be described thus: PIP4K2C binding assay (DiscoverX/Kinome platform).

In the next data set the test system is U-87 MG cells. The following applies: half-maximal cytotoxic concentration.
The next data set concerns VEEV (TC-83). The data set can be described thus: microbe, parasite or virus in culture. Conditions: Venezuelan equine encephalitis virus, U-87 MG, 18 h, read-out: VEEV (TC-83) EC50. The class given is cell-based.
Data set [3] has as its target T2, PIP4K2C. The following applies: cited from earlier work.
Data set [4] has as its system non-Hodgkin lymphoma (NHL) B-cell lines. Conditions: large panel of NHL B-cell lines; read-out: antiproliferative IC50; cited from earlier work.
Data set [5] deals with subcutaneous Burkitt lymphoma xenografts. The following applies: oral administration, mice; cited from earlier work.

Consider `Fc1ccc(-c2cnc3c(C#Cc4cccnc4)snc3c2)cc1` [Compound 3g, 6-(4-Fluorophenyl)-3-(pyridin-3-ylethynyl)isothiazolo[4,3-b]pyridine], for which the CC50 – broadly, the concentration giving 50% cytotoxicity – came out at 0.81 ± 0.16 µM in the data set on HCT-116; 0.73 ± 0.23 µM in the data set on Capan-1; 1.46 ± 0.36 µM in the data set on NCI-H460; 4.39 ± 0.94 µM in the data set on LN-229; 1.03 ± 0.2 µM with Z-138; 1.51 ± 0.71 µM in the data set on HL-60. Besides, the CC50 in the data set with K-562 amounted to 5.18 ± 0.48 µM; in the data set on DND-41, 3.06 ± 1.71 µM. Also, the IC50 (as a rule, the concentration needed to halve the response being measured) at PIKfyve (Tables 1-4 and text) is 10 nM.
Take `COc1cncc(C#Cc2snc3cc(-c4ccc(OC)c(OC)c4)cnc23)c1` [Compound 7l, 6-(3,4-Dimethoxyphenyl)-3-((5-methoxypyridin-3-yl)ethynyl)isothiazolo[4,3-b]pyridine]: the EC50 – broadly, the concentration giving half of the maximal effect – stood at 4.92 ± 0.93 µM with SARS-CoV-2 and 1.64 ± 0.05 µM in the data set on VEEV (TC-83). Besides, the CC50 in data set [1] was greater than 20 µM; in the data set on HCT-116, 2.45 ± 0.85 µM; in the data set with Capan-1 it was 1.79 ± 1.2 µM; in the data set on NCI-H460 it was 5.38 ± 0.56 µM; with LN-229, 5.15 ± 2.05 µM; in the data set with Z-138, 1.85 ± 0.07 µM. The CC50 with HL-60 was determined as 1.8 µM; in the data set on K-562, 5.7 ± 1.27 µM; with DND-41, 5.25 ± 0.64 µM. In addition, the IC50 on PIKfyve (Table 5 column) worked out at 3.3 nM; at PIKfyve (Tables 1-4 and text) it was 3.3 nM; on PIKfyve (values given in text in nM), 3 nM. Moreover, the “fold more potent on PIKfyve than 7o” value on PIKfyve (ratio of IC50 values) is given as 6 fold. In addition, on PIKfyve (ratio of IC50 values), the “fold more potent on PIKfyve than 7h” value was found to be 200 fold. On PIP4K2C [2], the Kd (commonly the free concentration of one partner at which half of the binding sites on the other are occupied at equilibrium, for simple one-to-one binding) is 0.039 µM. The “VEEV (TC-83) CC50” value in the data set on U-87 MG cells was greater than 10 µM.
Consider `FC(F)(F)c1ccccc1-c1nc(NCc2cccs2)c2ccccc2n1` [NIH-12848, reference compound], for which the Kd on PIP4K2C [3] is 2.8 µM.
As for `COc1ccc(-c2cnc3c(C#Cc4cncc(C)c4)snc3c2)cc1OC` [Compound 7i, 6-(3,4-Dimethoxyphenyl)-3-((5-methylpyridin-3-yl)ethynyl)isothiazolo[4,3-b]pyridine], the CC50 was no less than 74 µM in the data set with HCT-116; 14.6 ± 2.97 µM in the data set on Capan-1; greater than 100 µM with NCI-H460; greater than 100 µM in the data set on LN-229; 70.2 ± 2.55 µM in the data set on Z-138; greater than 100 µM in the data set on HL-60. Moreover, the CC50 in the data set with K-562 and in the data set on DND-41 was greater than 100 µM in each case. Further, the IC50 at PIKfyve (Tables 1-4 and text) stood at 2 nM; on PIKfyve (values given in text in nM), 2 nM.
With `COc1ccc(-c2cnc3c(C#Cc4cnccc4C)snc3c2)cc1OC` [Compound 7p, 6-(3,4-Dimethoxyphenyl)-3-((4-methylpyridin-3-yl)ethynyl)isothiazolo[4,3-b]pyridine], the EC50 in the data set with SARS-CoV-2 came out at 0.83 ± 0.06 µM; with VEEV (TC-83) it was 4.01 ± 0.13 µM. Besides, the CC50 was greater than 20 µM in data set [1]; greater than 100 µM with HCT-116; greater than 100 µM with Capan-1; greater than 100 µM with NCI-H460; greater than 100 µM in the data set with LN-229; 12.3 ± 1.77 µM in the data set with Z-138. For the same compound, the CC50 in the data set on HL-60, with K-562 and with DND-41 was greater than 100 µM in each case. Also, the IC50 at PIKfyve (Tables 1-4 and text) was 33 nM. Further, the “VEEV (TC-83) CC50” value in the data set on U-87 MG cells was greater than 10 µM.
As for `Ic1cccc(/C=N/Nc2nc(N3CCOCC3)nc(N(c3ccccc3)c3ccccc3)n2)c1` [Vacuolin-1, reference compound], the CC50 worked out at 1.87 ± 0.75 µM in the data set with HCT-116; 0.9 ± 0.13 µM in the data set with Capan-1; 1.46 ± 0.16 µM in the data set with NCI-H460; 6.35 ± 1.8 µM with LN-229; 16.6 ± 1.31 µM in the data set on Z-138; 26.4 ± 1.48 µM with HL-60. The results for the CC50 in the data set with K-562 and in the data set with DND-41 were 17.2 ± 3.08 µM and 24.1 ± 1.21 µM, respectively.
Turning to `Cc1cccc(/C=N/Nc2cc(N3CCOCC3)nc(OCCc3ccccn3)n2)c1` [Apilimod, reference compound], in data set [4], the IC50 was less than 0.2 µM. The EC50 in the data set on SARS-CoV-2 came out at 0.19 µM; with VEEV (TC-83), 1.35 ± 0.49 µM. The “growth of subcutaneous Burkitt lymphoma xenografts” value in data set [5] is on record as “inhibits the growth”. Besides, the CC50 was 18.4 ± 0.42 µM in [1]; less than 0.02 µM in the data set with HCT-116; less than 0.02 µM in the data set with Capan-1; less than 0.02 µM in the data set on NCI-H460; 0.08 ± 0.09 µM in the data set with LN-229; 0.06 µM with Z-138. Also, the results for the half-maximal cytotoxic concentration (CC50) in the data set on HL-60, with K-562 and with DND-41 were 0.17 ± 0.02 µM, 0.33 ± 0.34 µM and 0.08 ± 0.02 µM, respectively. Besides, the “VEEV (TC-83) CC50” value with U-87 MG cells was greater than 10 µM.
Take `COc1ccccc1-c1cnc2c(C#Cc3cccnc3)snc2c1` [Compound 3b, 6-(2-Methoxyphenyl)-3-(pyridin-3-ylethynyl)isothiazolo[4,3-b]pyridine]: the CC50 in the data set on HCT-116 came out at 1.02 ± 1.24 µM; with Capan-1, 1.02 ± 0.09 µM; with NCI-H460, 2.97 ± 0.75 µM; in the data set with LN-229, 3.28 ± 1.24 µM; in the data set with Z-138 it was 1.81 ± 0.69 µM; with HL-60, 1.48 ± 1.13 µM. The figures for the half-maximal cytotoxic concentration (CC50) in the data set on K-562 and with DND-41 were 5.27 ± 0.59 µM and 3.92 ± 0.72 µM, respectively. Also, the IC50 on PIKfyve (Tables 1-4 and text) came out at 6.8 nM.
`NC(=O)c1ccc(-c2cnc3c(C#Cc4cccnc4)snc3c2)cc1` [Compound 3m, 4-(3-(Pyridin-3-ylethynyl)isothiazolo[4,3-b]pyridin-6-yl)benzamide]: the EC50 came out at 1.82 ± 0.94 µM in the data set on SARS-CoV-2 and 0.19 ± 0.001 µM with VEEV (TC-83). Besides, the CC50 in data set [1] was greater than 20 µM; in the data set with HCT-116, 0.34 ± 0.78 µM; with Capan-1, 2.41 ± 0.94 µM; in the data set with NCI-H460, 2.9 ± 1.72 µM; with LN-229, 3.23 ± 0.78 µM; in the data set with Z-138, 0.96 ± 0.3 µM. Further, the CC50 in the data set with HL-60 turned out to be 1 ± 0.57 µM; in the data set with K-562 it was 6.53 ± 0.46 µM; in the data set on DND-41, 2.25 ± 0.19 µM. The IC50 on PIKfyve (Table 5 column) stood at 1.6 nM; on PIKfyve (Tables 1-4 and text), 1.6 nM. This compound yielded a Kd at PIP4K2C [2] of 0.041 µM. Further, the “VEEV (TC-83) CC50” value in the data set with U-87 MG cells is on record as greater than 20 µM.
With `COc1ccc(-c2cnc3c(C#Cc4cccnc4)snc3c2)cc1OC` [Compound 21, 6-(3,4-dimethoxyphenyl)-3-(pyridin-3-ylethynyl)isothiazolo[4,3-b]pyridine], the CC50 in data set [1] was greater than 20 µM; with HCT-116 it was 0.82 ± 0.37 µM; with Capan-1, 0.81 ± 0.11 µM; in the data set on NCI-H460 it was 2.52 ± 1.09 µM; in the data set on LN-229, 1.62 ± 0.5 µM; in the data set on Z-138 it was 0.77 ± 0.06 µM. Also, the CC50 was 1.47 ± 0.45 µM in the data set on HL-60, 4.24 ± 0.11 µM in the data set on K-562 and 1.75 ± 1.02 µM in the data set on DND-41. The dissociation constant Kd at PIP4K2C [3] was 0.046 µM. Moreover, the “VEEV (TC-83) CC50” value in the data set with U-87 MG cells was greater than 10 µM. Also, in the data set on VEEV (TC-83), the concentration for a half-maximal effect (EC50) stood at 0.75 ± 0.02 µM.
